# From the kinase profiling compilation of Christmann-Franck et al. (2016)
# Experiments:
# Test in all cases: KINOMEscan competition binding
# Conditions in all cases: compound 10.0 µM
# [1] = system: EGFR (human), P00533 [P753S; 747-752 del]
# CDKL5 (human) = CDKL5 (human) (UniProt O76039)
# STK38 (human) = STK38 (human) (UniProt Q15208)
# DDR1 (human) = DDR1 (human) (UniProt Q08345)
# MAP3K15 (human) = MAP3K15 (human) (UniProt Q6ZN16)
# STK32A (human) = STK32A (human) (UniProt Q8WU08)
# MAK (human) = MAK (human) (UniProt P20794)
# Chain of MAK (human) (P20794 whole entry, looked up): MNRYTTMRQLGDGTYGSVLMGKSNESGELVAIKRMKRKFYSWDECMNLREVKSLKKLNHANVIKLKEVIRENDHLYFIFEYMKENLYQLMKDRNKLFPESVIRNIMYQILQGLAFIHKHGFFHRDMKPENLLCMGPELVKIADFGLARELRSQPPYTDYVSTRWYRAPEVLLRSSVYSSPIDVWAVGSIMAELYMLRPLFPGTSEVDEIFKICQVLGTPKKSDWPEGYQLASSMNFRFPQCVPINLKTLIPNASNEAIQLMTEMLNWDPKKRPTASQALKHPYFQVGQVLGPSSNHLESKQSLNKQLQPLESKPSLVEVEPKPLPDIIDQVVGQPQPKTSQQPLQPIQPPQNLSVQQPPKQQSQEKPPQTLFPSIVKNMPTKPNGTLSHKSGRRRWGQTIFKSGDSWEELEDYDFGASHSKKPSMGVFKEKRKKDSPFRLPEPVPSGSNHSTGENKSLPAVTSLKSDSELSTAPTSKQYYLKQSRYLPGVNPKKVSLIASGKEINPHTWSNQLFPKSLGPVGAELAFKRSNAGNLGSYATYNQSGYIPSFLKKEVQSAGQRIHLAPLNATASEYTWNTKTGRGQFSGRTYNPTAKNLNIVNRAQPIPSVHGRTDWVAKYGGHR
# [2] = system: PIK3CA (human), P42336 [I800L]
# SBK1 (human) = SBK1 (human) (UniProt Q52WX2)
# [3] = system: EGFR (human), P00533 [746-750 del]
# NEK4 (human) = NEK4 (human) (UniProt P51957)
# [4] = system: EGFR (human), P00533 [L861Q]
# [5] = system: PIK3CA (human), P42336 [C420R]
# Chain of PIK3CA (human), P42336 [C420R] (P42336 whole entry C420R, looked up): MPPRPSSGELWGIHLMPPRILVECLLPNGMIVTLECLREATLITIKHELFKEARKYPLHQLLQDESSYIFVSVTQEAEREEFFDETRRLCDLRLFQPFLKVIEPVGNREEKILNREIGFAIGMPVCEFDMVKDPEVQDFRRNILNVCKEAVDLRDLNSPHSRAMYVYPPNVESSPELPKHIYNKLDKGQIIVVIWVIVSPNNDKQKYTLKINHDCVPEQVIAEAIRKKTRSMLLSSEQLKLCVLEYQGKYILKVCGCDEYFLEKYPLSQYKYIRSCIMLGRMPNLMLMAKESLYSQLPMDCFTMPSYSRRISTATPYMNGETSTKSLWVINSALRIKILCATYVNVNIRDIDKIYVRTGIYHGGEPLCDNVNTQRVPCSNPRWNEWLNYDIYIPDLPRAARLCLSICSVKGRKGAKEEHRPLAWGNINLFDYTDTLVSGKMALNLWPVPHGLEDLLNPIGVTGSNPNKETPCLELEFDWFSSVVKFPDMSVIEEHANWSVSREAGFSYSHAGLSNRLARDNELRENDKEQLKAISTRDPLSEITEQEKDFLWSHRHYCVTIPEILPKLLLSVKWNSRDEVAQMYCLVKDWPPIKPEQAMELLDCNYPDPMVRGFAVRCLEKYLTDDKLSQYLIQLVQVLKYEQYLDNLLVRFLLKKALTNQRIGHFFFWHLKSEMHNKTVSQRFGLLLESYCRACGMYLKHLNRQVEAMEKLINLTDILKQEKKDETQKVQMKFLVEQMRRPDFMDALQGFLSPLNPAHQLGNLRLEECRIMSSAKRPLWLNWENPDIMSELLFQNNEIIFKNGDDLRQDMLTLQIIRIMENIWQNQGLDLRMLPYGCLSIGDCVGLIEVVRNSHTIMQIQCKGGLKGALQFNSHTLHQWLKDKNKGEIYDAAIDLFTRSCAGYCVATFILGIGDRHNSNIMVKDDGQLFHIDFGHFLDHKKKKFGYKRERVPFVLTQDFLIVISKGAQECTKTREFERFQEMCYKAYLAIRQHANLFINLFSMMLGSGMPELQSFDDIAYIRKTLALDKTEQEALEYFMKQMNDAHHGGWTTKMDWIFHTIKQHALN
# BRAF (human) = BRAF (human) (UniProt P15056)
# GRK7 (human) = GRK7 (human) (UniProt Q8WTQ7)
# Chain of GRK7 (human) (Q8WTQ7 whole entry, looked up): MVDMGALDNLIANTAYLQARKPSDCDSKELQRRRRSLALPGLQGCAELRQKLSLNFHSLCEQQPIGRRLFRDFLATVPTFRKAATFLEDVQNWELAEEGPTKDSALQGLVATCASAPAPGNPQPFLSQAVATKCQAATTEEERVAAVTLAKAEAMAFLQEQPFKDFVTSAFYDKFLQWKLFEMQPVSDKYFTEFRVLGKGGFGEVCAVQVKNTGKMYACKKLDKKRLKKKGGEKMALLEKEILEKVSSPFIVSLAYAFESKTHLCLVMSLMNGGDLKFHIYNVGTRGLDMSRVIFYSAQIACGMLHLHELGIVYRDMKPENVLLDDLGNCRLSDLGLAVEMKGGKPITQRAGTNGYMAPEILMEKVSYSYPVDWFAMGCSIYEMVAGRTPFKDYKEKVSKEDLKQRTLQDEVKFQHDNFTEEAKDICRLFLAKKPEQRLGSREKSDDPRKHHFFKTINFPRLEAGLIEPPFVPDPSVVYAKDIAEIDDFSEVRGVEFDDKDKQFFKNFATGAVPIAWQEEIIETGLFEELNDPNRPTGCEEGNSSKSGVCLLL
# CDK13 (human) = CDK13 (human) (UniProt Q14004)
# PRKCI (human) = PRKCI (human) (UniProt P41743)
# RPS6KB1 (human) = RPS6KB1 (human) (UniProt P23443)
# OXSR1 (human) = OXSR1 (human) (UniProt O95747)
# PLK2 (human) = PLK2 (human) (UniProt Q9NYY3)
# MYLK3 (human) = MYLK3 (human) (UniProt Q32MK0)
# [6] = system: FLT3 (human), P36888 [K663Q]
# KIT (human) = KIT (human) (UniProt P10721)
# [7] = system: PIK3CA (human), P42336 [H1047Y]
# Chain of PIK3CA (human), P42336 [H1047Y] (P42336 whole entry H1047Y, looked up): as the sequence (P42336 whole entry C420R, looked up) above, with R420C, H1047Y counted along it
# [8] = system: PIK3CA (human), P42336 [Q546K]
# MAP2K5 (human) = MAP2K5 (human) (UniProt Q13163)
# BTK (human) = BTK (human) (UniProt Q06187)
# CDKL3 (human) = CDKL3 (human) (UniProt Q8IVW4)
# DYRK2 (human) = DYRK2 (human) (UniProt Q92630)
# PIP4K2C (human) = PIP4K2C (human) (UniProt Q8TBX8)
# PKN3 (M.tuberculosis) = PKN3 (M.tuberculosis) (UniProt Q6P5Z2)
# TBK1 (human) = TBK1 (human) (UniProt Q9UHD2)
# DYRK1A (human) = DYRK1A (human) (UniProt Q13627)
# NIM1 (human) = NIM1 (human) (UniProt Q8IY84)
# CRK2 (P.falciparum) = CRK2 (P.falciparum) (UniProt P61075)
# [9] = system: EGFR (human), P00533 [G719S]
# IRAK4 (human) = IRAK4 (human) (UniProt Q9NWZ3)
# SGK3 (human) = SGK3 (human) (UniProt Q96BR1)
# Chain of SGK3 (human) (Q96BR1 whole entry, looked up): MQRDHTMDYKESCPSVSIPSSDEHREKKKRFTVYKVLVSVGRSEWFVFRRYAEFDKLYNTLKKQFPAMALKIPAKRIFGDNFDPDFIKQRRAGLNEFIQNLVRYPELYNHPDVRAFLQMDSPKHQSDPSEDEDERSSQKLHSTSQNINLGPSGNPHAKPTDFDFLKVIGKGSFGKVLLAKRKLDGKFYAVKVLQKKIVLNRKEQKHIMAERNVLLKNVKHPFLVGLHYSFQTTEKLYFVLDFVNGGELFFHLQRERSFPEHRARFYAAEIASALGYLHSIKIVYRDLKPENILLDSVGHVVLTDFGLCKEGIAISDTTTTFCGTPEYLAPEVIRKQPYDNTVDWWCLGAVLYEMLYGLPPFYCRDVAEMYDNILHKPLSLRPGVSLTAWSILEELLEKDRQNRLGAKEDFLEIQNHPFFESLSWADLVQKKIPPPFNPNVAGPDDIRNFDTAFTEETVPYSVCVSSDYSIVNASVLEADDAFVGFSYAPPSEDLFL
# [10] = system: KIT (human), P10721 [V559D/T670I]
# CDK4 CCND1 (human) = CDK4 CCND1 (human) (UniProt P11802+P24385)
# Chain of DDR1 (human) (Q08345 whole entry, looked up): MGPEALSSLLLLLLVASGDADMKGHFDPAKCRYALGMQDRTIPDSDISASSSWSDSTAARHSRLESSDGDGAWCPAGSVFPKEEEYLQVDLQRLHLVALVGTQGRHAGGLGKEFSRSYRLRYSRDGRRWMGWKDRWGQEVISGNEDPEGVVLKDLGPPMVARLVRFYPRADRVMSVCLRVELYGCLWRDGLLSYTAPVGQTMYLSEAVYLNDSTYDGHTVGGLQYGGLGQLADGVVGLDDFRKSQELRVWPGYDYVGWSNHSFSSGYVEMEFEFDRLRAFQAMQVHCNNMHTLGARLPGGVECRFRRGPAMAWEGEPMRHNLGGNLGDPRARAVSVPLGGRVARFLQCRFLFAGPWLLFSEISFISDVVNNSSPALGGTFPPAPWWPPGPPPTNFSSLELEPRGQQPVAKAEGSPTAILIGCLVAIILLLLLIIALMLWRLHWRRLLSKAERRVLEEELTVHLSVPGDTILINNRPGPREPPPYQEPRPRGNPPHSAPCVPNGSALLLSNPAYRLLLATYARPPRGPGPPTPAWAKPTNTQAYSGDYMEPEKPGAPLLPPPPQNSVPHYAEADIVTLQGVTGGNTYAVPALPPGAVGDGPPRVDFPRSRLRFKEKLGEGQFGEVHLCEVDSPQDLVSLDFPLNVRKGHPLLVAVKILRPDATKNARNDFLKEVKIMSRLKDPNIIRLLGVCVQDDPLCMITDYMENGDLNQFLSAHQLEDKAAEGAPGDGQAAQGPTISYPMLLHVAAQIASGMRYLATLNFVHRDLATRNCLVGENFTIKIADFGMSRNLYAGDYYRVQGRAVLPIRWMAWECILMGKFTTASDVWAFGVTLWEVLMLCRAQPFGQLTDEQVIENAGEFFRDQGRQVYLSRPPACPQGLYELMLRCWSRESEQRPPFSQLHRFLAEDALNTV
# Chain of STK32A (human) (Q8WU08 whole entry, looked up): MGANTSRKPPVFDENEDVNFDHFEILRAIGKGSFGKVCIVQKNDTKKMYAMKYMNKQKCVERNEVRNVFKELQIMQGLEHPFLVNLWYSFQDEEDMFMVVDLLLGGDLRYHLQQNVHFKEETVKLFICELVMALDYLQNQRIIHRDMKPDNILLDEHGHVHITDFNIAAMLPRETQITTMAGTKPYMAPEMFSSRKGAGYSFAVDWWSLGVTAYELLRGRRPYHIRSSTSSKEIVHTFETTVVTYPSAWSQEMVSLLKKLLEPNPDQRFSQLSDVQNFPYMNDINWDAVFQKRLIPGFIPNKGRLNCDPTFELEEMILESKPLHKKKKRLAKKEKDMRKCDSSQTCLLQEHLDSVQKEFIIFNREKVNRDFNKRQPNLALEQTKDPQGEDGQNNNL
# Chain of CDKL5 (human) (O76039 whole entry, looked up): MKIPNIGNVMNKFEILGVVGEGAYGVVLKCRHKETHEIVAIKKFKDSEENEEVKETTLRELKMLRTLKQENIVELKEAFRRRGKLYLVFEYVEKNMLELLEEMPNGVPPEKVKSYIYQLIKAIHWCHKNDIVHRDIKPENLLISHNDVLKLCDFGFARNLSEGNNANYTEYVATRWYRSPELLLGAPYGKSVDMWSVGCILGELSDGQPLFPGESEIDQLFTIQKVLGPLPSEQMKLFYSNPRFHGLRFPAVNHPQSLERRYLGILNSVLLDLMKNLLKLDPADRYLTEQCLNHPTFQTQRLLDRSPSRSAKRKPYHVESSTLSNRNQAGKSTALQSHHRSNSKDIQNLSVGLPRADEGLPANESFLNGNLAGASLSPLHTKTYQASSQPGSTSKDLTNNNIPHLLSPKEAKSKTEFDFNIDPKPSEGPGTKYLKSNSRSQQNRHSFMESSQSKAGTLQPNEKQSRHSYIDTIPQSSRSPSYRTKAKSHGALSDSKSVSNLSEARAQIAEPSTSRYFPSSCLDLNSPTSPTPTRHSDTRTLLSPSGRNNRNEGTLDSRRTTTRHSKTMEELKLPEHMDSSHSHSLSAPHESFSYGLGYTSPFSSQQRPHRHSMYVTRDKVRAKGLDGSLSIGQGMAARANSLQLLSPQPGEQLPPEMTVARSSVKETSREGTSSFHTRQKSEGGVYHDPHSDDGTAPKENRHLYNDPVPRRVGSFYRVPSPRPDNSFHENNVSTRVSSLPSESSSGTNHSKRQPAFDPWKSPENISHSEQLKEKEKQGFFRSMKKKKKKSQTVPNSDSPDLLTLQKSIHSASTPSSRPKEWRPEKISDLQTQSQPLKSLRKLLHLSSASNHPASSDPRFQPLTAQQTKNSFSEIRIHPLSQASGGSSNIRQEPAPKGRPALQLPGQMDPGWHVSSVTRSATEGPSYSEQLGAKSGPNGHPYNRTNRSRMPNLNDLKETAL
SMILES,"kinase still bound, per cent of control [1] [%]","kinase still bound, per cent of control (CDKL5 (human)) [%]","kinase still bound, per cent of control (STK38 (human)) [%]","kinase still bound, per cent of control (DDR1 (human)) [%]","kinase still bound, per cent of control (MAP3K15 (human)) [%]","kinase still bound, per cent of control (STK32A (human)) [%]","kinase still bound, per cent of control (MAK (human)) [%]","kinase still bound, per cent of control [2] [%]","kinase still bound, per cent of control (SBK1 (human)) [%]","kinase still bound, per cent of control [3] [%]","kinase still bound, per cent of control (NEK4 (human)) [%]","kinase still bound, per cent of control [4] [%]","kinase still bound, per cent of control [5] [%]","kinase still bound, per cent of control (BRAF (human)) [%]","kinase still bound, per cent of control (GRK7 (human)) [%]","kinase still bound, per cent of control (CDK13 (human)) [%]","kinase still bound, per cent of control (RPS6KB1 (human)) [%]","kinase still bound, per cent of control (OXSR1 (human)) [%]","kinase still bound, per cent of control (PLK2 (human)) [%]","kinase still bound, per cent of control (MYLK3 (human)) [%]",other results
COc1cc(N2CCN(C)CC2)ccc1Nc1nc(N)c(C(=O)c2c(Cl)cccc2Cl)s1,89,100,100,98,51,88,26,96,80,85,96,100,100,94,100,83,89,100,91,100,"kinase still bound, per cent of control (PRKCI (human)): 93%; kinase still bound, per cent of control [6]: 100%; kinase still bound, per cent of control (KIT (human)): 100%; kinase still bound, per cent of control [7]: 100%; kinase still bound, per cent of control [8]: 78%; kinase still bound, per cent of control (MAP2K5 (human)): 100%; kinase still bound, per cent of control (BTK (human)): 100%; kinase still bound, per cent of control (CDKL3 (human)): 86%; kinase still bound, per cent of control (DYRK2 (human)): 89%; kinase still bound, per cent of control (PIP4K2C (human)): 46%; kinase still bound, per cent of control (PKN3 (M.tuberculosis)): 80%; kinase still bound, per cent of control (TBK1 (human)): 100%; kinase still bound, per cent of control (DYRK1A (human)): 72%; kinase still bound, per cent of control (NIM1 (human)): 80%; kinase still bound, per cent of control (CRK2 (P.falciparum)): 87%; kinase still bound, per cent of control [9]: 88%; kinase still bound, per cent of control (IRAK4 (human)): 96%; kinase still bound, per cent of control (SGK3 (human)): 100%; kinase still bound, per cent of control [10]: 100%"
C[C@@H](Oc1cc(-n2cnc3ccc(CN4CCN(C)CC4)cc32)sc1C(N)=O)c1ccccc1C(F)(F)F,97,31,71,100,24,66,100,24,55,100,69,100,55,79,33,26,52,98,2.6,100,"kinase still bound, per cent of control [6]: 14%; kinase still bound, per cent of control (KIT (human)): 47%; kinase still bound, per cent of control [7]: 32%; kinase still bound, per cent of control [8]: 29%; kinase still bound, per cent of control (MAP2K5 (human)): 43%; kinase still bound, per cent of control (BTK (human)): 100%; kinase still bound, per cent of control (CDKL3 (human)): 100%; kinase still bound, per cent of control (DYRK2 (human)): 54%; kinase still bound, per cent of control (PIP4K2C (human)): 62%; kinase still bound, per cent of control (PKN3 (M.tuberculosis)): 27%; kinase still bound, per cent of control (TBK1 (human)): 84%; kinase still bound, per cent of control (CDK4 CCND1 (human)): 91%; kinase still bound, per cent of control (DYRK1A (human)): 100%; kinase still bound, per cent of control (NIM1 (human)): 30%; kinase still bound, per cent of control (CRK2 (P.falciparum)): 100%; kinase still bound, per cent of control [9]: 100%; kinase still bound, per cent of control (IRAK4 (human)): 43%; kinase still bound, per cent of control (SGK3 (human)): 28%; kinase still bound, per cent of control [10]: 37%"
